Measurements published in BigSolDB 2.1.

CC(C(=O)O)c1ccc(CC2CCCC2=O)cc1 (stereo not given)
solubility (mole fraction)
Settings	283.15 K	288.15 K	293.15 K	298.15 K	303.15 K	308.15 K	313.15 K	318.15 K	323.15 K	328.15 K
in 1,4-dioxane	0.154	0.171	0.19	0.214	0.246	0.272	0.304	0.339	0.378	0.408
in acetonitrile	0.0234	0.0296	0.0364	0.0419	0.059	0.0847	0.113	0.166	0.233	0.318
in ethanol	0.0573	0.0676	0.0717	0.0943	0.123	0.154	0.208	0.252	0.316	0.389
in ethyl acetate	0.0521	0.0621	0.0752	0.0848	0.0996	0.13	0.162	0.19	0.244	0.301
in ethyl orthosilicate	0.0247	0.0293	0.0325	0.0365	0.043	0.0491	0.0565	0.0694	0.0796	0.0991
in isobutyl acetate	0.0261	0.0314	0.0357	0.0451	0.0583	0.0688	0.0913	0.116	0.144	0.191
in isopentyl acetate	0.0253	0.0306	0.035	0.0448	0.0561	0.0674	0.0829	0.109	0.134	0.165
in isopropanol	0.0589	0.0747	0.0874	0.0966	0.128	0.145	0.189	0.224	0.277	0.339
in isopropyl acetate	0.0298	0.0373	0.0443	0.056	0.0694	0.0819	0.11	0.134	0.176	0.229
in methanol	0.0694	0.0783	0.0897	0.118	0.163	0.216	0.283	0.364	0.496	0.628
in methyl acetate	0.0568	0.0659	0.0797	0.0895	0.11	0.136	0.17	0.205	0.255	0.325
in n-butyl acetate	0.0284	0.0338	0.0418	0.0527	0.0621	0.0764	0.096	0.122	0.156	0.205
in n-propanol	0.0526	0.0643	0.0792	0.0905	0.116	0.139	0.184	0.223	0.269	0.338
in n-propyl acetate	0.0384	0.0483	0.0529	0.0631	0.0814	0.0978	0.127	0.155	0.199	0.261
